Measurements taken from patent US12319752B2, “Heparin-binding cationic peptide self-assembling peptide amphiphiles useful against drug-resistant bacteria” (priority 2016, dated 2025).
Residues, ends and D or L forms follow the SMILES beside them. *: point of attachment. Palmitoyl = CCCCCCCCCCCCCCCC(=O)*

Legend:
MDR E. coli [1] = experiment: Live/dead bacterial viability assay; assay type: cell-based, multidrug-resistant E. coli (MDR E. coli); settings: 4 h
Description: To further investigate bacteria viability after treatment with ACA-PA, the live/dead assay was used to confirm the antibacterial actions of ACA-PA. Dead bacteria with disrupted membrane were stained a first color, whereas live bacteria were stained with a second color fluorescence. A large amount of robust MRSA bacteria in the untreated control sample appeared a second color and in spherical shapes (FIG. 10A). […] This antibacterial activity was dependent on the concentration of PA, yet was not determined by peptide self-assembly. Nonetheless, Gram-negative MDR E. coli responded to the treatment of ACA-PA differently from Gram-positive MRSA.
The live/dead bacterial viability assay was conducted to further assess the bactericidal efficacy of ACA-PA using the LIVE/DEAD BacLight Bacterial Viability Kits (Kits 71007, Molecular Probes, Eugene, OR, USA). MRSA and MDR E. coli bacteria (100 μl, 10^6 CFU/mL) were incubated with 80 μM and 40 μM of peptide in 3% TSB media at 37° C. for 4 h on a 96-well plate, and the control samples of bacteria were incubated in 3% TSB media only. […] The live bacteria stained fluorescent a second color (SYTO9 nucleic acid stain), whereas the dead bacteria with disrupted membranes stained fluorescent a first color (propidium iodide, PI).

MRSA = experiment: Bacterial membrane disruption by TEM of ultrathin sections; assay type: cell-based, methicillin-resistant S. aureus (MRSA); settings: 4 h
Experimental: TEM was used to reveal the damage in bacterial cell envelopes caused by ACA-PA treatment. Drug-resistant bacterial strains (MRSA and MDR E. coli) were exposed to ACA-PA at concentrations below (40 μM) and above (80 μM) the CMC, and ultrathin sections of the bacterial cultures were visualized by TEM.
The ACA-PA at a concentration lower than CMC seemed to only influenced the outer bacteria membrane, but were inadequate to disrupt the inner bacteria membranes.
Bacterial membrane disruption was observed from the ultrathin sectioned sample using TEM. […] After treatment with 80 μM ACA nanorods, bacterial cell membranes were severely damaged with complete cytoplasm leakage. […] On the damaged membranes, blisters appeared to originate from the pores. This explains the reason for the different antibacterial activity of ACA-PA on Gram-negative bacteria compared to the concentration-dependent toxicity on Gram-positive bacteria. The cell envelope of Gram-positive has a cytoplasmic membrane surrounded by a thick peptidoglycan layer with lipoteichoic acid. The antibacterial ACA-PA could penetrate the Gram-positive bacterial membrane by charge and hydrophobicity, although the PA were in a dispersed, non-assembled form. However, such dispersed PA were not able to penetrate the outer membrane of Gram-negative bacteria. […]

MDR E. coli [2] = experiment: Bacterial growth inhibition (growth curves, OD562, 20 h); assay type: cell-based, multidrug-resistant E. coli (MDR E. coli, ATCC #BAA-2471)
Experimental: Gram-positive (S. aureus and MRSA) and Gram-negative (E. coli and MDR E. coli) bacteria were incubated with peptide concentrations ranging from 20 to 100 μM, and time-lapsed bacterial growth was monitored for 20 hours by determining the optical density at 562 nm (O.D. 562 nm). […] At the highest concentration tested (100 μM), the time to exponential growth phase of S. aurues was delayed by about 18 h (FIG. 5B), and was prolonged by almost 13 h for MRSA (FIG. 5A), while bacteria incubated without ACA-PA entered the exponential growth phase within 4 h. Gram-positive bacteria were also susceptible to the ACA-PA even below their CMC.
The MIC values of ACA-PA towards drug-resistant bacteria were determined after 24 h of incubation (Table 2).
This assay was performed to investigate the inhibitory effects of each peptide against Gram-positive Staphylococcus aureus (S. aureus, ATCC #25923) and methicillin-resistant S. aureus (MRSA, ATCC #43300), as well as Gram-negative Escherichia coli (E. coli, ATCC #25922), and multidrug-resistant E. coli (MDR E. coli, ATCC #BAA-2471). In all experiments, solutions of each peptide at the concentrations from 20 μM to 100 μM in 3% Tryptic Soy Broth (TSB) media were freshly prepared. A single colony of bacteria was isolated from a stock agar plate and cultured overnight in 4 mL of 3% TSB on a shaking incubator set at 200 rpm and 37° C. The bacteria culture was adjusted to an optical density at 562 nm (OD562) to about 0.52 (10^9 cells/mL), and the resulting bacteria suspension was subsequently diluted to about 10^6 colony forming units (CFU) per mL in each sample. The control samples were bacteria incubated in TSB media without peptides. The bacteria were incubated inside a spectrophotometer (Spectra-Max Paradigm, Molecular Devices, Sunnyvale, CA) at 37° C. under static conditions for 20 h, and the bacterial growth curves were measured in terms of turbidity at OD562 every 2 minutes. The normalized OD562 values of samples were calculated by subtracting the […].

## CCCCCCCCCCCCCCCC(=O)N[C@H](C(=O)N[C@H](C(=O)N[C@H](C(=O)N[C@H](C(=O)N[C@@H](CCCCN)C(=O)N[C@@H](CCCCN)C(=O)N[C@@H](CCCCN)C(=O)N[C@@H](CCCCN)C(=O)NCC(=O)N[C@@H](C)C(=O)N[C@@H](CCCCN)C(=O)N[C@@H](CCCCN)C(=O)N[C@@H](C)C(=O)N[C@@H](CCCNC(=N)N)C(=O)N[C@@H](C)C(=O)N[C@@H](C)C(=O)N[C@@H](CCCCN)C(=O)N[C@@H](CCCCN)C(=O)N[C@@H](C)C(=O)N[C@@H](CCCNC(=N)N)C(=O)N[C@@H](C)C(=O)O)C(C)C)C(C)C)C(C)C)C(C)C [ACA-PA, C16-V4K4G(AKKARA)2 (SEQ ID NO: 7)] (Palmitoyl-VVVVKKKKGAKKARAAKKARA-OH; N-terminus and C-terminus assumed)
MDR E. coli [1]; 40 μM
  bacterial viability (live/dead staining): unable to induce considerable cell mortality
MDR E. coli [1]; 80 μM
  bacterial viability (live/dead staining): enhanced the number of dead bacteria drastically
MRSA; 40 μM
  bacterial membrane disruption (TEM): partially damaged
MRSA; 80 μM
  bacterial membrane disruption (TEM): localized disruption on the cell membrane and complete leakage of the cytoplasm
MDR E. coli [2]; 20 to 100 μM, 20 h
  bacterial growth inhibition: remarkably inhibited the proliferation
MDR E. coli [2]; concentrations higher than the CMC (60 μM to 100 μM)
  bacterial proliferation: significantly suppressed
MDR E. coli [2]; concentrations lower than the CMC
  bacterial growth inhibition: did not significantly inhibit bacterial growth
MDR E. coli [2]; over 80 μM
  bacterial growth: no bacteria growth was observed
